The subject of this data set is human Factor 7 mRNA. Nature of the data set: Antisense inhibition of human Factor 7 mRNA in HepB3 cells, lipofectin, 50 nM, real-time RT-PCR. In kind it is cell-based. Particulars: for % Inhibition (human Factor 7 mRNA): 50 nM, ~24 h. Put shortly: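 After transfection of wells containing 4,000 cells, treatment ran for approximately 24 h. RIBOGREEN®-measured total RNA served for normalisation, and inhibition was calculated as a percentage of untreated control.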
(Quantitative PCR measures a nucleic acid by following its amplification.)

Setting [1] is: HepB3 cells, gapmers targeted to nucleobases 11830 to 11869 of SEQ ID NO: 1 (Table 9).
[2] abbreviates: HepB3 cells, lipofectin, 50 nM antisense oligonucleotide, approximately 24 hours, primer probe set RTS 2927, relative to untreated control.
[3] abbreviates: Example 1, HepB3 cells, lipofectin, relative to untreated control cells.
Setting [4] is: Example 4, HepB3 cells, lipofectin, relative to untreated control.
The mark [5] stands for this setting: HepB3 cells, gapmers targeted to nucleobases 14707 to 14732 of SEQ ID NO: 1 (Table 11).
The mark [6] stands for this setting: Example 6 microwalk, nucleobases 15098 to 15122 of SEQ ID NO: 1, HepB3, lipofectin.

In the oligonucleotide strings, read from the 5' end, every base follows the letter of its sugar. An asterisk marks phosphorothioate; unmarked linkages are phosphodiester. Other units and linkages are bracketed, terminal groups are in braces. A string of capitals states the bases alone. e = 2'-O-(2-methoxyethyl) (MOE); [5mC] = 5-methylcytosine; d = 2'-deoxy (DNA)

For the substance “422091 (antisense eT*eG*eG*eT*e[5mC]*dA*dG*dG*dG*d[5mC]*dT*dG*dG*dT*dT*eT*eT*eG*eG*eA) [compound 422091]”, the “% Inhibition of human Factor 7 mRNA levels” value under setting [1] was found to be 42%.
“416459 (antisense eT*eG*eG*eT*e[5mC]*dA*dG*dT*dG*dA*dG*dG*dA*d[5mC]*d[5mC]*eA*e[5mC]*eG*eG*eG) [compound 416459]”: the “% Inhibition of human Factor 7 mRNA levels” value under setting [2] was 23%.
Turning to “407601 (antisense e[5mC]*eA*eG*e[5mC]*e[5mC]*d[5mC]*dT*dG*dA*dA*dG*d[5mC]*d[5mC]*d[5mC]*dA*eA*eG*e[5mC]*eA*eG) [compound 407601]”, the “% Inhibition (human Factor 7 mRNA)” value under setting [3] turned out to be 52%.
For “407647 (antisense eG*e[5mC]*eA*eG*e[5mC]*d[5mC]*dG*dT*dT*dT*dA*dT*dT*dG*dT*eG*eA*eA*eG*e[5mC]) [compound 407647]”, the “% Inhibition (human Factor 7 mRNA)” value under setting [3] came to 83%.
Regarding “416435 (antisense e[5mC]*e[5mC]*e[5mC]*eA*eT*d[5mC]*dA*d[5mC]*dT*dG*dT*dA*dA*dG*dA*eA*eA*eT*e[5mC]*e[5mC]) [compound 416435]”, the “% Inhibition of human Factor 7 mRNA levels” value under setting [2] is 3%.
The same measure, in the same setting: as for “416451 (antisense eG*e[5mC]*e[5mC]*eA*eT*dG*dG*dA*d[5mC]*dA*d[5mC]*dT*d[5mC]*d[5mC]*d[5mC]*e[5mC]*eT*eT*eT*eG) [compound 416451]”, the figure is 75%.
In the case of “422129 (antisense eG*eT*eT*eA*e[5mC]*dT*dG*dA*dG*d[5mC]*dG*d[5mC]*dG*dG*dA*eA*eG*eA*eA*eG) [compound 422129]”, the “% Inhibition (human Factor 7 mRNA)” value under setting [4] was found to be 45%.
For “416468 (antisense eT*eG*eG*eG*eA*dG*dA*d[5mC]*d[5mC]*d[5mC]*dT*dG*dG*dT*dG*eT*eA*e[5mC]*eA*e[5mC]) [compound 416468]”, under setting [2], the “% Inhibition of human Factor 7 mRNA levels” value is recorded as 46%.
Take “422282 (antisense eA*eG*d[5mC]*dA*dG*d[5mC]*d[5mC]*dT*dG*dA*dG*dG*d[5mC]*d[5mC]*dA*eG*e[5mC]*eA*eG*eA) [compound 422282]”: under setting [5], the “% Inhibition of human Factor 7 mRNA levels” value turned out to be 48%.
With “422094 (antisense e[5mC]*eA*eA*eT*eG*dG*dT*d[5mC]*dA*dG*dG*dG*d[5mC]*dT*dG*eG*eT*eT*eT*eT) [compound 422094]”, the “% Inhibition of human Factor 7 mRNA levels” value under setting [1] is 48%.
On to “422207 (antisense e[5mC]*eA*e[5mC]*dA*d[5mC]*dA*dT*dG*dG*dA*dG*dT*d[5mC]*dA*dG*d[5mC]*dA*eT*e[5mC]*eG) [compound 422207]”, for which the “% Inhibition (human Factor 7 mRNA)” value under setting [6] was determined as 41%.
For “422106 (antisense e[5mC]*eT*eG*eG*e[5mC]*dT*dG*dA*dG*dG*dA*dG*dA*d[5mC]*dA*eA*eT*eG*eG*eT) [compound 422106]”, the “% Inhibition of human Factor 7 mRNA levels” value under setting [1] is 32%.
Consider “407654 (antisense e[5mC]*e[5mC]*eA*e[5mC]*eT*dG*d[5mC]*dA*dG*d[5mC]*d[5mC]*dA*dG*dG*dG*e[5mC]*e[5mC]*eT*eG*eG) [compound 407654]”, for which the “% Inhibition (human Factor 7 mRNA)” value under setting [3] is given as 34%.
The same measure, in the same setting: with “407934 (antisense e[5mC]*eT*eG*eA*eA*dG*dT*dG*dA*dA*dG*dA*dT*dG*dA*eT*eA*eA*eT*eG) [compound 407934]” the figure was 45%.
As to “416466 (antisense eT*eG*eT*eG*eG*dG*d[5mC]*d[5mC]*dT*d[5mC]*d[5mC]*dA*d[5mC]*dT*dG*eT*e[5mC]*e[5mC]*e[5mC]*e[5mC]) [compound 416466]”, the “% Inhibition of human Factor 7 mRNA levels” value under setting [2] was 57%.
For the substance “407624 (antisense eG*eA*eG*eA*e[5mC]*d[5mC]*dA*d[5mC]*d[5mC]*d[5mC]*dA*dG*dA*dT*dG*eG*eT*eG*eT*eT) [compound 407624]”, the “% Inhibition (human Factor 7 mRNA)” value under setting [3] was 73%.
In the case of “422254 (antisense e[5mC]*e[5mC]*d[5mC]*dG*d[5mC]*d[5mC]*dG*dG*d[5mC]*dT*d[5mC]*dT*dG*d[5mC]*dT*e[5mC]*eA*eT*e[5mC]*e[5mC]) [compound 422254]”, for the setting “HepB3 cells, gapmers targeted to nucleobases 13760 to 13789 of SEQ ID NO: 1 (Table 10)”, the “% Inhibition of human Factor 7 mRNA levels” value was determined as 42%.
Turning to “416519 (antisense eA*eA*eA*eT*eA*dT*dG*dG*dG*dA*d[5mC]*d[5mC]*d[5mC]*dA*dA*eA*eG*eT*eG*eG) [compound 416519]”, the “% Inhibition of human Factor 7 mRNA levels” value under setting [2] came to 9%.
Still for that read-out and setting: with “416531 (antisense eA*eG*eA*eT*eG*dA*d[5mC]*d[5mC]*dA*dG*d[5mC]*dA*dG*dG*dA*eA*eG*e[5mC]*e[5mC]*eT) [compound 416531]” the figure was 19%.
Consider “416463 (antisense eT*eG*e[5mC]*eT*eG*d[5mC]*dA*dG*dG*d[5mC]*dA*dG*dT*d[5mC]*d[5mC]*eT*eG*eG*eG*eT) [compound 416463]”, for which, under setting [2], the “% Inhibition of human Factor 7 mRNA levels” value was determined as 39%.
Take “422231 (antisense eT*e[5mC]*dA*dG*dG*dG*d[5mC]*dT*dG*dG*dT*dT*dT*dT*dG*eG*eA*eG*eG*eA) [compound 422231]”: the “% Inhibition of human Factor 7 mRNA levels” value under setting [1] came to 22%.
Regarding “407656 (antisense e[5mC]*eA*eG*e[5mC]*eA*dA*dG*dA*dG*dT*dG*d[5mC]*dA*dG*d[5mC]*eT*eT*eG*e[5mC]*e[5mC]) [compound 407656]”, the “% Inhibition (human Factor 7 mRNA)” value under setting [3] is reported as 43%.
For “407937 (antisense eG*eA*eA*eG*eG*dG*dA*dG*dA*dA*dA*dT*dA*d[5mC]*dA*eT*eT*eT*eG*eG) [compound 407937]”, the “% Inhibition (human Factor 7 mRNA)” value under setting [3] came out at 59%.
Turning to “416437 (antisense eA*eG*eG*e[5mC]*eA*d[5mC]*dA*d[5mC]*dT*dG*dG*dT*d[5mC]*d[5mC]*d[5mC]*e[5mC]*eA*eT*e[5mC]*eA) [compound 416437]”, the “% Inhibition of human Factor 7 mRNA levels” value under setting [2] was 52%.
On to “407642 (antisense e[5mC]*eA*eG*e[5mC]*eA*dG*d[5mC]*d[5mC]*dT*dG*dA*dG*dG*d[5mC]*d[5mC]*eA*eG*e[5mC]*eA*eG) [compound 407642]”, for which, under setting [3], the “% Inhibition (human Factor 7 mRNA)” value is recorded as 78%. Under setting [5], the “% Inhibition of human Factor 7 mRNA levels” value is given as 63%.
Regarding “422135 (antisense eA*eG*e[5mC]*eA*e[5mC]*dA*d[5mC]*dA*dT*dG*dG*dA*dG*dT*d[5mC]*eA*eG*e[5mC]*eA*eT) [compound 422135]”, the “% Inhibition (human Factor 7 mRNA)” value under setting [6] was 53%.
With “416485 (antisense eG*eA*eG*e[5mC]*eT*dA*d[5mC]*dA*dG*d[5mC]*d[5mC]*dT*d[5mC]*dA*dA*eA*e[5mC]*eA*eT*e[5mC]) [compound 416485]”, the “% Inhibition of human Factor 7 mRNA levels” value under setting [2] turned out to be 7%.
As to “407909 (antisense e[5mC]*e[5mC]*eA*eT*e[5mC]*d[5mC]*dG*dA*dG*dT*dA*dG*d[5mC]*d[5mC]*dG*eG*e[5mC]*eA*e[5mC]*eA) [compound 407909]”, the “% Inhibition (human Factor 7 mRNA)” value under setting [3] was found to be 77%.
Take “416475 (antisense e[5mC]*eT*e[5mC]*eA*eG*d[5mC]*dT*dG*dG*dG*d[5mC]*dT*dG*dT*d[5mC]*eT*eG*e[5mC]*e[5mC]*eT) [compound 416475]”: the “% Inhibition of human Factor 7 mRNA levels” value under setting [2] came out at 70%.
Take “422120 (antisense e[5mC]*eG*e[5mC]*eG*eG*dA*dA*dG*dA*dA*dG*dG*dG*dA*d[5mC]*eG*eG*eA*eA*eG) [compound 422120]”: the “% Inhibition (human Factor 7 mRNA)” value under setting [4] worked out at 40%.
As for “407924 (antisense eG*eA*eT*eT*eT*dG*dG*dT*dG*d[5mC]*d[5mC]*dA*dG*dG*dA*e[5mC]*eA*eG*eT*eT) [compound 407924]”, under setting [3], the “% Inhibition (human Factor 7 mRNA)” value was found to be 68%.
For “416525 (antisense eT*eA*eT*eG*eA*dG*dT*d[5mC]*d[5mC]*dT*dT*d[5mC]*dT*dA*dG*eT*eG*eA*eA*eT) [compound 416525]”, the “% Inhibition of human Factor 7 mRNA levels” value under setting [2] is on record as 5%.

These data come from patent US20120214862A1, “MODULATION OF FACTOR 7 EXPRESSION” (ISIS Pharmaceuticals, Inc., priority 2009, published 2012).
